Earlier results, collected in patent US20170128486A1, “CONSUMABLE COMPOSITIONS AND USES THEREOF FOR ALLEVIATING UNDESIRABLE PHYSIOLOGICAL EFFECTS SYSTEMS” (ImmunoL0G1C R&D Inc., priority 2015, published 2017).
Converted amounts (≈) assume the structure as drawn.

Row | SMILES | solubility (in water) | solubility in water
1 | N[C@@H](Cc1c[nH]c2ccc(O)cc12)C(=O)O [5-hydroxytryptophan] | 10000 µg/mL (≈ 45.4 mM) | –
2 | N[C@@H](Cc1c[nH]c2ccccc12)C(=O)O [L-tryptophan] | – | poorly soluble in water
